Test results: patent publication US7842802B2, “Vinorelbine derivatives” (priority 2003, dated 2010)
Read-outs that look alike come from different tables or passages of the source.

Experiments:
ACHN = assay: NCI 60-cell line growth inhibition assay, ACHN; format: cell-based, human; conditions: Renal
From the text: (§1) The following data in Table 4 summarize the growth inhibition properties of several compounds of the present invention against 60-human transformed cell lines.

NCI-H522 = assay: NCI 60-cell line growth inhibition assay, NCI-H522; format: cell-based, human; conditions: Non-Small Cell Lung
From the text: as §1

SK-MEL-2 = assay: NCI 60-cell line growth inhibition assay, SK-MEL-2; format: cell-based, human; conditions: Melanoma
From the text: as §1

SF-268 = assay: NCI 60-cell line growth inhibition assay, SF-268; format: cell-based, human; conditions: CNS
From the text: as §1

MDA-MB-435 = assay: NCI 60-cell line growth inhibition assay, MDA-MB-435; format: cell-based, human; conditions: Breast
From the text: as §1

RPMI-8226 = assay: NCI 60-cell line growth inhibition assay, RPMI-8226; format: cell-based, human
From the text: as §1

[1] = test system: HeLa S-3 human cervical carcinoma cell line; assay: HeLa GI50 determination (SRB); format: cell-based; conditions: HeLa S-3, 2 days of treatment, SRB, read-out: HeLa Cells GI50
Method: Growth inhibition (GI50) values were measured on the human cervical carcinoma cell line, HeLa S-3, which were selected for growth on plastic. The HeLa cell assay was based on the description of Skehan et al., J. Natl. Cancer Inst., 82:1107-12 (1990), which is hereby incorporated by reference in its entirety. HeLa cells were plated at 2×10^4 cells/well in 96 well plates. One day later, a control plate was fixed by the addition of TCA to 5%. After five rinses with tap water, the plate was air-dried and stored at 4° C. Test compounds were added to the remaining plates at 10-fold dilutions. Two days later, all plates were fixed as described above. Cells were then stained by the addition of 100 μL per well of 0.4% sulforhodamine B (SRB) in 1% acetic acid for 30 min at 4° C. Wells were then quickly rinsed 5× with 1% acetic acid and allowed to air dry. The SRB was then solubilized by the addition of 100 μL per well of unbuffered 10 mM Tris base. Dye was quantified by measuring absorbance at 490 nm on a Molecular Devices microplate reader. Growth inhibition was calculated according to the following equation: GI=100×(T−T0)/(C−T0), where the optical density (OD) of the test well after 2 days of treatment was T, the OD of the wells in the control plate on day 0 was T0 and C was the OD of untreated wells. Plots of percent growth inhibition versus inhibitor concentration were used to determine the GI50.

HOP-62 = assay: NCI 60-cell line growth inhibition assay, HOP-62; format: cell-based, human; conditions: Non-Small Cell Lung
From the text: as §1

RXF 393 = assay: NCI 60-cell line growth inhibition assay, RXF 393; format: cell-based, human; conditions: Renal
From the text: as §1

TK-10 = assay: NCI 60-cell line growth inhibition assay, TK-10; format: cell-based, human; conditions: Renal
From the text: as §1

UO-31 = assay: NCI 60-cell line growth inhibition assay, UO-31; format: cell-based, human; conditions: Renal
From the text: as §1

OVCAR-8 = assay: NCI 60-cell line growth inhibition assay, OVCAR-8; format: cell-based, human; conditions: Ovarian
From the text: as §1

[2] = test system: MCF-7 human breast carcinoma line; assay: MCF-7 GI50 determination (crystal violet); format: cell-based; conditions: MCF-7, 4 days of treatment, crystal violet, read-out: MCF-7 Cells GI50
Method: Growth inhibition (GI50) values were measured on the human breast carcinoma line, MCF-7. MCF-7 cells were plated at 2×10^4 cells/well in 96 well plates and grown for 24 hours in drug free media. On day 2, test compounds were added to the plates at 10-fold dilutions. Four days later, cells were fixed by the addition of glutaraldehyde to 0.75%. After 30 min, the fixed cells were extensively rinsed with distilled water and dried at room temperature for one hour. The cells were then stained with a 0.2% crystal violet solution for one hour at room temperature. Unbound stain was removed by ten rinses with tap water and plates were allowed to air dry for 30 min. The crystal violet was then solubilized by the addition of 10% acetic acid for 15 min and quantified by measuring absorbance at 570 nm on a Molecular Devices microplate reader. Growth inhibition was calculated according to the following equation: GI=[…], where the optical density (OD) of the test well after 4 days of treatment was T, the OD of the wells in the control plate on day 0 was T0. Plots of percent growth inhibition versus inhibitor concentration were used to determine the GI50.

HOP-92 = assay: NCI 60-cell line growth inhibition assay, HOP-92; format: cell-based, human; conditions: Non-Small Cell Lung
From the text: as §1

NCI-H226 = assay: NCI 60-cell line growth inhibition assay, NCI-H226; format: cell-based, human; conditions: Non-Small Cell Lung
From the text: as §1

KM12 = assay: NCI 60-cell line growth inhibition assay, KM12; format: cell-based, human; conditions: Colon
From the text: as §1

PC-3 = assay: NCI 60-cell line growth inhibition assay, PC-3; format: cell-based, human; conditions: Prostate
From the text: as §1

UACC-62 = assay: NCI 60-cell line growth inhibition assay, UACC-62; format: cell-based, human; conditions: Melanoma
From the text: as §1

CCRF-CEM = assay: NCI 60-cell line growth inhibition assay, CCRF-CEM; format: cell-based, human; conditions: Leukemia
From the text: as §1

M14 = assay: NCI 60-cell line growth inhibition assay, M14; format: cell-based, human; conditions: Melanoma
From the text: as §1

MALME-3M = assay: NCI 60-cell line growth inhibition assay, MALME-3M; format: cell-based, human; conditions: Melanoma
From the text: as §1

SNB-75 = assay: NCI 60-cell line growth inhibition assay, SNB-75; format: cell-based, human; conditions: CNS
From the text: as §1

HCT-15 = assay: NCI 60-cell line growth inhibition assay, HCT-15; format: cell-based, human; conditions: Colon
From the text: as §1

K-562 = assay: NCI 60-cell line growth inhibition assay, K-562; format: cell-based, human
From the text: as §1

SF-295 = assay: NCI 60-cell line growth inhibition assay, SF-295; format: cell-based, human; conditions: CNS
From the text: as §1

A549/ATCC = assay: NCI 60-cell line growth inhibition assay, A549/ATCC; format: cell-based, human; conditions: Non-Small Cell Lung
From the text: as §1

SF-539 = assay: NCI 60-cell line growth inhibition assay, SF-539; format: cell-based, human; conditions: CNS
From the text: as §1

HL-60(TB) = assay: NCI 60-cell line growth inhibition assay, HL-60(TB); format: cell-based, human; conditions: Leukemia
From the text: as §1

NCI-H460 = assay: NCI 60-cell line growth inhibition assay, NCI-H460; format: cell-based, human; conditions: Non-Small Cell Lung
From the text: as §1

LOX IMVI = assay: NCI 60-cell line growth inhibition assay, LOX IMVI; format: cell-based, human; conditions: Melanoma
From the text: as §1

SN12C = assay: NCI 60-cell line growth inhibition assay, SN12C; format: cell-based, human; conditions: Renal
From the text: as §1

SR = assay: NCI 60-cell line growth inhibition assay, SR; format: cell-based, human; conditions: Leukemia
From the text: as §1

U251 = assay: NCI 60-cell line growth inhibition assay, U251; format: cell-based, human
From the text: as §1

MCF7 = assay: NCI 60-cell line growth inhibition assay, MCF7; format: cell-based, human; conditions: Breast
From the text: as §1

Molecule: 11′-bromovinorelbine [Example 1]
- GI50 (ACHN): 3230 nM
- GI50 (NCI-H522): < 10 nM
- GI50 (SK-MEL-2): < 10 nM
- GI50 (SF-268): < 10 nM
- GI50 (MDA-MB-435): < 10 nM
- GI50 (RPMI-8226): < 10 nM
- GI50 (RPMI-8226; Leukemia): < 10 nM
- GI50 [1]: 5 nM
- GI50 (HOP-62): < 10 nM
- GI50 (RXF 393): 10300 nM
- GI50 (TK-10): < 10 nM
- GI50 (UO-31): < 10 nM
- GI50 (OVCAR-8): < 10 nM
- GI50 [2]: 3 nM
- GI50 (HOP-92): 1240 nM
- GI50 (NCI-H226): < 10 nM
- GI50 (KM12): < 10 nM
- GI50 (PC-3): < 10 nM
- GI50 (UACC-62): < 10 nM
- GI50 (CCRF-CEM): < 10 nM
- GI50 (M14): < 10 nM
- GI50 (MALME-3M): 53.6 nM
- GI50 (SNB-75): 15100 nM
- GI50 (HCT-15): < 10 nM
- GI50 (K-562; Leukemia): < 10 nM
- GI50 (SF-295): < 10 nM
- GI50 (A549/ATCC): < 10 nM
- GI50 (SF-539): < 10 nM
- GI50 (HL-60(TB)): < 10 nM
- GI50 (NCI-H460): < 10 nM
- GI50 (LOX IMVI): < 10 nM
- GI50 (SN12C): < 10 nM
- GI50 (SR): > 100000 nM
- GI50 (U251; CNS): < 10 nM
- GI50 (MCF7): < 10 nM

Molecule: CCC1=C[C@H]2CN(C1)Cc1c([nH]c3ccc(I)cc13)[C@@](C(=O)OC)(c1cc3c(cc1OC)N(C)[C@H]1[C@@](O)(C(=O)OC)[C@H](OC(C)=O)C4C(CC)=CCN5CC[C@]31[C@H]45)C2 (stereo partly drawn) [Example 2, 11′-iodovinorelbine]
- GI50 (ACHN; Homo sapiens): 1430 nM
- GI50 (NCI-H522; Homo sapiens): < 10 nM
- GI50 (SK-MEL-2; Homo sapiens): 1400 nM
- GI50 (SF-268; Homo sapiens): 78.8 nM
- GI50 (MDA-MB-435; Homo sapiens): 1370 nM
- GI50 (RPMI-8226; Homo sapiens, Leukemia): 16.7 nM
- GI50 ([1]; Homo sapiens, HeLa S3, 48 h): 25 nM
- GI50 (HOP-62; Homo sapiens): 37 nM
- GI50 (RXF 393; Homo sapiens): 60.5 nM
- GI50 (TK-10; Homo sapiens): 298 nM
- GI50 (UO-31; Homo sapiens): 674 nM
- GI50 (OVCAR-8; Homo sapiens): 51.7 nM
- GI50 ([2]; Homo sapiens, MCF7, 96 h): 7 nM
- GI50 (HOP-92; Homo sapiens): 2250 nM
- GI50 (NCI-H226; Homo sapiens): 83.3 nM
- GI50 (KM12; Homo sapiens): 92.7 nM
- GI50 (PC-3; Homo sapiens): 57.3 nM
- GI50 (UACC-62; Homo sapiens): 25.6 nM
- GI50 (CCRF-CEM; Homo sapiens): 37.9 nM
- GI50 (M14; Homo sapiens): > 100000 nM
- GI50 (MALME-3M; Homo sapiens): 65 nM
- GI50 (SNB-75; Homo sapiens): 40.4 nM
- GI50 (HCT-15; Homo sapiens): 1070 nM
- GI50 (K-562; Homo sapiens, K562, Leukemia): 12.4 nM
- GI50 (SF-295; Homo sapiens): 27 nM
- GI50 (A549/ATCC; Homo sapiens): 58.6 nM
- GI50 (SF-539; Homo sapiens): 37.9 nM
- GI50 (HL-60(TB); Homo sapiens): 71 nM
- GI50 (NCI-H460; Homo sapiens): 43.2 nM
- GI50 (LOX IMVI; Homo sapiens): 31.3 nM
- GI50 (SN12C; Homo sapiens): 70.8 nM
- GI50 (SR; Homo sapiens): 26.1 nM
- GI50 (U251; Homo sapiens, U-251, CNS): 42.3 nM
- GI50 (MCF7; Homo sapiens): 11.3 nM
